According to patent publication US7582786B2, “Synthetic catalytic free radical scavengers useful as antioxidants for prevention and therapy of disease” (Eukarion Inc., priority 1996, dated 2009):

Experiments:
[1] = Peroxidase activity, H2O2-dependent oxidation of ABTS (Example 2); assay type: biochemical; conditions: for Peroxidase rate: 10 μM salen manganese complex, 0.2 mM H2O2; for Peroxidase: relative to C7 (C7 = 100)
Procedure: Peroxidase activity was assayed by monitoring the hydrogen peroxide-dependent oxidation of 2,2′-azino-bis(3-ethylbenzthiazoline-6) sulfonic acid (ABTS) spectrophotometrically. Standard assay mixtures consisted of 50 mM sodium phosphate, pH 8.1, 0.9% sodium chloride, 0.5 mM ABTS, and H2O2 and salen manganese complex as indicated. Where indicated, 50 mM sodium phosphate buffers of pH 6.0 or pH 7.1 were substituted. Assays were conducted at 27±0.2° C. ABTS oxidation was monitored at 740 or 500 nm to eliminate interference by the salen manganese complexes, many of which absorb in the vicinity of the λmax of oxidized ABTS, and to avoid absorbance values that exceeded the linear range of the spectrophotometer. The amount of oxidized ABTS was estimated using an Δε740 of 20,300 M^−1cm^−1 or an Δε500 of 3400 M^−1cm^−1 calculated based upon the published molar extinction coefficient oat 405 nm (36,800).
(§1) Catalase and peroxidase activities were assayed as described in Example 2. Catalase assays contained 10 μM salen-manganese complex and 10 mM hydrogen peroxide. Peroxidase assays contained 10 μM salen-manganese complex and 0.2 mM hydrogen peroxide. Glucose-glucose oxidase toxicity assays were performed using human dermal fibroblasts as described in Example 2.

[2] = Catalase activity, conversion of H2O2 to oxygen, polarographic oxygen electrode (Example 2); assay type: biochemical
Procedure: Catalase activity was assayed by monitoring the conversion of H2O2 to oxygen using a Clark-type polarographic oxygen electrode. The apparatus consisted of a Mini Clark Style electrode, a 600 μl Oxygen Uptake Chamber, and a Chemical Microsensor system, all obtained from Diamond General Corporation (Ann Arbor, Mich.). The electrode was calibrated by immersion in nitrogen- or air-equilibrated buffers using a Dual Chamber Calibration Cell (Diamond General,. Corp.). Catalase reaction mixtures consisted of 50 mM sodium phosphate, pH 8.1, 0.9% sodium chloride, and salen manganese complex and H2O2 at the indicated concentrations. The temperature of the water-jacketed reaction chamber, as well as the calibration buffers, was maintained at 25±0.1° C. Data were collected at 1 sec intervals and stored-on a MacIntosh II computer using data acquisition hardware and software by Strawberry Tree, Inc. (Sunnyvale, Calif.). Dissolved oxygen concentrations were calculated as described previously (Del Rio et al. (1977) Anal. Biochem. 80: 409) based on a value of 2.5×10^−4 M oxygen for air-saturated buffer at 25° C. Linearity of the dissolved oxygen measurements within the experimental range was continued by determining the amount of oxygen generated from known quantities of H2O2 during exhaustive treatment with bovine liver catalase. Stock solutions of H2O2 were prepared by diluting a commercial 30% H2O2 solution in water and the H2O2 concentrations in these stocks were determined by absorbance at 240 nm, using a molar extinction coefficient of 44 (Stadtman, E R. et al. (1990) Proc. Natl. Acad. Sci. USA 87: 384). […] In the absence of salen manganese complex, H2O2 alone typically produced an early, relatively slow increase in signal. The slope of this increased signal was not proportional to H2O2 concentration (for example in one experiment, 1 and 10 Mm H2O2 yielded apparent rates of 12 and 14 μM oxygen per min, respectively) and may be due to an electrode artifact. […] Where presented, initial rates were calculated by determining the slope of the linear portion of time dependent plots of oxygen generation, usually comprising the first five seconds of the reaction. Unless otherwise indicated, these were corrected by subtracting the rate obtained with H2O2 alone. Where presented, endpoint oxygen generated was calculated from time-dependent plots, such as those shown in FIG. 14, as the difference between the baseline oxygen concentration immediately prior to substrate addition and the maximal oxygen concentration achieved during the course of the reaction. All reactions subjected to these calculations were run for a sufficient time to ensure that oxygen generation had ceased.
as §1

[3] = SOD activity, xanthine/xanthine oxidase with cytochrome C as acceptor (Example 2); assay type: biochemical; conditions: for SOD: relative to C7 (C7 = 100)
Procedure: Superoxide dismutase (SOD) activity was assayed by following the inhibition of the reduction of an electron acceptor molecule in the presence of the free-radical generating system xanthine/xanthine oxidase (McCord et al. (1973) Superoxide and Superoxide Dismutase in “Oxidases and Related Redox Systems, vol. I, King et al. eds., University Park press, Baltimore, pp. 51-76). The assay mixture consisted of 50 mM sodium phosphate, pH 7.8, 120 μM xanthine, 0.2 units/ml xanthine oxidase, with acceptor molecule and salen manganese compound, as indicated. Assays were conducted at 27±0.2° C. using a water-jacketed cell holder in a Beckman DU7400 spectrophotometer. In most cases, oxidized cytochrome c, at 0.13 mg/ml, was employed as acceptor and its reduction was monitored spectrophotometrically at 550 nm. In some experiments, nitroblue tetrazolium (NBT), at 80 μM, was substituted for cytochrome c as the acceptor. NBT reduction was also monitored at 550 nm. An estimated extinction coefficient for NBT reduction, 20,800 M^−1cm^−1, determined empirically by exhaustive reduction of NBT in the reaction mixture described above, was employed where indicated. […] Conversion of xanthine to urate was calculated using ε290's of […] for urate and 4050 M^−1cm^−1 for xanthine. […] For each compound, at least four different concentrations were tested in duplicate.

[4] = system: Human dermal fibroblasts (HF cells); experiment: Cell protection assay, glucose/glucose oxidase toxicity, XTT; assay type: cell-based
Procedure: (§2) Human dermal fibroblasts (HF cells) were obtained from the American type tissue Culture Collection at passage 1 and cultured and propagated in a medium (HF medium) consisting of Dulbecco's Modified Eagle's Medium with 4.5 g/l D-glucose, 10% calf serum 4 mM glutamine, 50 units/ml penicillin, and 50 μg/ml streptomycin in a 37° C. humidified incubator equilibrated with 5% CO2. Cells were used at passages 5 or 6 for experiments. For cell protection assays, HF cells were seeded at a density of about 15,000 cells per cm2 onto 96-well culture plates and allowed to grow to confluence. To assess protection tert-butylhydroperoxide (t-BHP) toxicity, confluent cell layers were first treated with the indicated concentrations of test compounds dissolved in HF medium for 18 hr. The medium was then replaced with fresh medium containing test compounds and 0.5 mM tert-butylhydroperoxide (t-BHP) and cells were incubated for another 18 hr. The medium was then removed and replaced with fresh HF medium (100 μl per well) without test compounds or t-BHP. Fifty μl of XTT reagent (Boeringer Mannheim, Inc.), prepared as described by the manufacturer, was then added to each well and the plates returned to the incubator. After 2 hr., the absorbance at 490 nm was measured in a BioRad (Richmond, Calif.) Model 3550 plate-reader, using a reference wavelength of 655 nm. Control cells that had not been exposed to test compounds or toxic agents were included among the samples treated with XTT reagent. Absorbance measurements for blank wells, containing HF medium and XTT reagent but no cells, were also determined. To analyze protection from glucose/glucose oxidase toxicity, confluent cell layers were incubated with HF medium containing glucose oxidase (0.019 units/ml) along with test compounds, as indicated, for 18 hr in the tissue culture incubator. Fresh HF medium was then added and cell viability assessed using the XTT reagent as described above. For both these models, concentrations of toxic agents were selected that were reproducibly completely lethal. Cytotoxicity assessments were routinely confirmed by visual inspection of the cell layers prior to addition of the XTT reagent.
as §1

[5] = system: Human dermal fibroblasts (HF cells); experiment: Cell protection assay, tert-butylhydroperoxide (t-BHP) toxicity, XTT; assay type: cell-based; conditions: for Cell viability, absorbance at 490 nm uncorrected for blank: t-BHP 0.5 mM
Procedure: as §2

brain homogenates = experiment: Iron-induced lipid peroxidation in brain homogenates (MDA); assay type: biochemical, rat
Procedure: Lipid peroxidation was induced by incubating a mixture consisting of 0.25 ml homogenate, 0.25 ml ASCF with test compounds, and 10 μM FeCl2 for 1 hr at 35° C. under an atmosphere equilibrated with O2:CO2(95:5). Following the incubation, 0.1 ml of the sample was extracted with trichloroacetic acid and analyzed for thiobarbituric acid reactive material as described previously, using authentic malonyldialdehyde (MDA) as a standard.

[6] = 10 μM salen manganese complex, 10 mM H2O2
[7] = 80 μM, glucose oxidase 0.019 units/ml
[8] = 29 units/ml bovine liver catalase added, 10 mM H2O2

## COc1ccc2c(c1)C=NCCN=Cc1cc(OC)ccc1[O][Mn]([Cl])[O]2 [Compound C41]
[1]
  Peroxidase rate: 23.4 ± 2.6 μM ABTS oxidized/min
  Peroxidase: 136
[2]; 10 μM complex, 10 mM H2O2
  turnovers before the catalase reaction ceased: about 16 turnovers
[2]; [6]
  Catalase rate: 172.2 ± 2.2 μM O2/min
  Endpoint: 83.5 ± 0.9 maximal μM O2
[2]; relative to C7 (C7 = 100)
  Catalase endpt.: 311
  Catalase rate: 120
[3]
  SOD: 114
[4]; [7]
  protection against glucose and glucose oxidase: highly protective
[5]; 2.5 μM
  Cell viability, absorbance at 490 nm uncorrected for blank: 0.28 ± 0.01
[5]; 5 μM
  Cell viability, absorbance at 490 nm uncorrected for blank: 0.28 ± 0.01
[5]; 10 μM
  Cell viability, absorbance at 490 nm uncorrected for blank: 1.37 ± 0.01
[5]; 20 μM
  Cell viability, absorbance at 490 nm uncorrected for blank: 1.44 ± 0.04
[5]; 40 μM
  Cell viability, absorbance at 490 nm uncorrected for blank: 1.35 ± 0.06
[5]; 80 μM, without t-BHP
  toxicity of compound alone: equivalent toxicity with or without t-BHP
[5]; 80 μM
  Cell viability, absorbance at 490 nm uncorrected for blank: 1.07 ± 0.03

## COc1ccc2c(c1)[O][Mn]([Cl])[O]c1cc(OC)ccc1C=NCCN=C2 [Compound C34]
[1]
  Peroxidase rate: 0.8 ± 0.2 μM ABTS oxidized/min
  Peroxidase: 4
Brain homogenates; 1 μM
  MDA levels, percent of control: 97%
Brain homogenates; 5 μM
  MDA levels, percent of control: 30%
Brain homogenates; 10 μM
  MDA levels, percent of control: 12%
Brain homogenates; 25 μM
  MDA levels, percent of control: 6%
[2]; [6]
  Catalase rate: 66.4 ± 13.9 μM O2/min
  Endpoint: 11.9 ± 0.2 maximal μM O2
[2]; relative to C7 (C7 = 100)
  Catalase endpt.: 44
  Catalase rate: 46
[3]
  SOD: 70
[4]
  protection against glucose and glucose oxidase (in words): about equally as effective as C7
[5]; 2.5 μM
  Cell viability, absorbance at 490 nm uncorrected for blank: 0.27 ± 0.01
[5]; 5 μM
  Cell viability, absorbance at 490 nm uncorrected for blank: 0.27 ± 0.01
[5]; 10 μM
  Cell viability, absorbance at 490 nm uncorrected for blank: 1.20 ± 0.12
[5]; 20 μM
  Cell viability, absorbance at 490 nm uncorrected for blank: 1.46 ± 0.08
[5]; 40 μM
  Cell viability, absorbance at 490 nm uncorrected for blank: 1.48 ± 0.08
[5]; 80 μM
  Cell viability, absorbance at 490 nm uncorrected for blank: 1.54 ± 0.08

## COc1ccc2c(c1)C=NCCN=Cc1cc(OC)ccc1[O][Mn]([O]C(C)=O)[O]2 [Compound C38]
[1]
  Peroxidase rate: 19.8 ± 0.4 μM ABTS oxidized/min
  Peroxidase: 129
[3]
  SOD: 100
[4]; [7]
  protection against glucose and glucose oxidase: highly protective

B1: bovine liver catalase: bovine liver catalase enzyme used as reference (protein, UniProt P00432 2-527, looked up)
Catalase: ADNRDPASDQMKHWKEQRAAQKPDVLTTGGGNPVGDKLNSLTVGPRGPLLVQDVVFTDEMAHFDRERIPERVVHAKGAGAFGYFEVTHDITRYSKAKVFEHIGKRTPIAVRFSTVAGESGSADTVRDPRGFAVKFYTEDGNWDLVGNNTPIFFIRDALLFPSFIHSQKRNPQTHLKDPDMVWDFWSLRPESLHQVSFLFSDRGIPDGHRHMNGYGSHTFKLVNANGEAVYCKFHYKTDQGIKNLSVEDAARLAHEDPDYGLRDLFNAIATGNYPSWTLYIQVMTFSEAEIFPFNPFDLTKVWPHGDYPLIPVGKLVLNRNPVNYFAEVEQLAFDPSNMPPGIEPSPDKMLQGRLFAYPDTHRHRLGPNYLQIPVNCPYRARVANYQRDGPMCMMDNQGGAPNYYPNSFSAPEHQPSALEHRTHFSGDVQRFNSANDDNVTQVRTFYLKVLNEEQRKRLCENIAGHLKDAQLFIQKKAVKNFSDVHPEYGSRIQALLDKYNEEKPKNAVHTYVQHGSHLSAREKANL
[1]; 19 units/ml, pH 6.0, 7.1, 8.1
  peroxidase activity toward ABTS: no peroxidase activity
[1]; [8]
  reduction of initial rate of ABTS oxidation by C7: 55%
  total ABTS oxidized by C7: 18 µM
[2]; 19 units/ml, 2.3 mM H2O2
  rate of oxygen production: ~0.33 mM/min
[3]; 29 units/ml
  effect on rate of cytochrome C reduction by xanthine oxidase: did not affect
[4]; 290 units/ml
  protection against glucose and glucose oxidase: full protection
[4]; ten-fold lower dose than 290 units/ml
  protection against glucose and glucose oxidase: only partially protective
